Assay results from PubChem BioAssay (NCI).
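Abbreviation: GI50, concentration required for 50% inhibition of growth. The concentration for full growth arrest is given as TGI.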

Experiments:
Assay in all cases: growth of human tumour cells (NCI), 384-well format
[1] = test system: NCI/ADR-RES ovarian
[2] = test system: SK-MEL-5 melanoma
[3] = test system: IGROV1 ovarian
[4] = test system: CCRF-CEM leukemia
[5] = test system: NCI-H322M lung
[6] = test system: UACC-257 melanoma
[7] = test system: HT29 colon
[8] = test system: DU-145 prostate
[9] = test system: HOP-92 NSCLC
[10] = test system: NCI-H522 lung
[11] = test system: MDA-MB-468 breast
[12] = test system: OVCAR-4 ovarian
[13] = test system: M14 melanoma
[14] = test system: SF-539 CNS
[15] = test system: HCC-2998 colon
[16] = test system: RXF 393 renal
[17] = test system: NCI-H226 lung
[18] = test system: MALME-3M melanoma
[19] = test system: A549 NSCLC
[20] = test system: SF-295 CNS
[21] = test system: HL-60(TB) leukemia
[22] = test system: OVCAR-3 ovarian
[23] = test system: MCF7 breast
[24] = test system: 786-0 renal
[25] = test system: LOX IMVI melanoma
[26] = test system: K-562 leukemia
[27] = test system: A498 renal
[28] = test system: SR leukemia
[29] = test system: BT-549 breast
[30] = test system: CAKI-1 renal
[31] = test system: UO-31 renal
[32] = test system: NCI-H23 lung
[33] = test system: HOP-62 NSCLC
[34] = test system: MDA-MB-435 melanoma
[35] = test system: HCT-116 colon
[36] = test system: UACC-62 melanoma
[37] = test system: T-47D breast
[38] = test system: TK-10 renal
[39] = test system: MDA-MB-231 breast
[40] = test system: MOLT-4 leukemia
[41] = test system: COLO 205 colon
[42] = test system: SW-620 colon
[43] = test system: SN12C renal
[44] = test system: KM12 colon
[45] = test system: SK-OV-3 ovarian
[46] = test system: SK-MEL-2 melanoma
[47] = test system: U251 glioblastoma
[48] = test system: OVCAR-5 ovarian
[49] = test system: ACHN renal
[50] = test system: OVCAR-8 ovarian
[51] = test system: NCI-H460 NSCLC
[52] = test system: PC-3 prostate
[53] = test system: HCT-15 colon
[54] = test system: SF-268 CNS
[55] = test system: SNB-19 CNS
[56] = test system: SK-MEL-28 melanoma

Question: How did the GI50 [1] turn out when Cc1c2c(nn1C)CSCc1cc(n(C)n1)CSc1cc(c3ccccc3c1)OCCCc1c(C(=O)O)n(C)c3c-2c(Cl)ccc13 was run?
Answer: 12 µM

Question: And the TGI [1]?
Answer: 24.4 µM

Question: What about the GI50 [2] of the same molecule?
Answer: 1.23 µM

Question: What about the TGI [2] of the same molecule?
Answer: 2.69 µM

Question: And the GI50 [3]?
Answer: 2.85 µM

Question: What about the TGI [3] of the same molecule?
Answer: 10.9 µM

Question: What about the GI50 [4] of the same molecule?
Answer: 0.631 µM

Question: What about the TGI [4] of the same molecule?
Answer: 2.33 µM

Question: And the GI50 [5]?
Answer: 8.43 µM

Question: What about the TGI [5] of the same molecule?
Answer: 20.8 µM

Question: What about the GI50 [6] of the same molecule?
Answer: 2.59 µM

Question: What about the TGI [6] of the same molecule?
Answer: 9.27 µM

Question: And the GI50 [7]?
Answer: 3.49 µM

Question: What about the TGI [7] of the same molecule?
Answer: 11.3 µM

Question: What about the GI50 [8] of the same molecule?
Answer: 2.98 µM

Question: And the TGI [8]?
Answer: 8.97 µM

Question: What about the GI50 [9] of the same molecule?
Answer: 2.08 µM

Question: And the TGI [9]?
Answer: 5.64 µM

Question: And the GI50 [10]?
Answer: 0.0686 µM

Question: And the TGI [10]?
Answer: 0.581 µM

Question: What about the GI50 [11] of the same molecule?
Answer: 0.126 µM

Question: What about the TGI [11] of the same molecule?
Answer: 0.581 µM

Question: What about the GI50 [12] of the same molecule?
Answer: 0.459 µM

Question: And the TGI [12]?
Answer: 3.54 µM

Question: And the GI50 [13]?
Answer: 2.8 µM

Question: And the TGI [13]?
Answer: 8.79 µM

Question: And the GI50 [14]?
Answer: 1.74 µM

Question: What about the TGI [14] of the same molecule?
Answer: 4.35 µM

Question: And the GI50 [15]?
Answer: 1.11 µM

Question: What about the TGI [15] of the same molecule?
Answer: 3.94 µM

Question: What about the GI50 [16] of the same molecule?
Answer: 0.375 µM

Question: And the TGI [16]?
Answer: 2.13 µM

Question: And the GI50 [17]?
Answer: 2.59 µM

Question: And the TGI [17]?
Answer: 7.4 µM

Question: And the GI50 [18]?
Answer: 1.76 µM

Question: And the TGI [18]?
Answer: 4.45 µM

Question: And the GI50 [19]?
Answer: 3.94 µM

Question: What about the TGI [19] of the same molecule?
Answer: 15.1 µM

Question: And the GI50 [20]?
Answer: 1.85 µM

Question: And the TGI [20]?
Answer: 4.23 µM

Question: What about the GI50 [21] of the same molecule?
Answer: 0.0122 µM

Question: And the TGI [21]?
Answer: 0.0248 µM

Question: What about the GI50 [22] of the same molecule?
Answer: 1.76 µM

Question: What about the TGI [22] of the same molecule?
Answer: 3.69 µM

Question: And the GI50 [23]?
Answer: 0.336 µM

Question: What about the TGI [23] of the same molecule?
Answer: 2.75 µM

Question: And the GI50 [24]?
Answer: 3.06 µM

Question: What about the TGI [24] of the same molecule?
Answer: 11.5 µM

Question: And the GI50 [25]?
Answer: 3.01 µM

Question: And the TGI [25]?
Answer: 10.1 µM

Question: What about the GI50 [26] of the same molecule?
Answer: 3.78 µM

Question: What about the TGI [26] of the same molecule?
Answer: 13.1 µM

Question: And the GI50 [27]?
Answer: 3.69 µM

Question: And the TGI [27]?
Answer: 14.1 µM

Question: What about the GI50 [28] of the same molecule?
Answer: 0.0157 µM

Question: What about the TGI [28] of the same molecule?
Answer: 0.0329 µM

Question: And the GI50 [29]?
Answer: 1.62 µM

Question: And the TGI [29]?
Answer: 4.58 µM

Question: What about the GI50 [30] of the same molecule?
Answer: 5.74 µM

Question: What about the TGI [30] of the same molecule?
Answer: 18.2 µM

Question: What about the GI50 [31] of the same molecule?
Answer: 3.82 µM

Question: And the TGI [31]?
Answer: 14.6 µM

Question: And the GI50 [32]?
Answer: 0.185 µM

Question: What about the TGI [32] of the same molecule?
Answer: 0.861 µM

Question: And the GI50 [33]?
Answer: 2.41 µM

Question: What about the TGI [33] of the same molecule?
Answer: 10.6 µM

Question: And the GI50 [34]?
Answer: 1.01 µM

Question: And the TGI [34]?
Answer: 13.2 µM

Question: And the GI50 [35]?
Answer: 2.41 µM

Question: And the TGI [35]?
Answer: 6.04 µM

Question: What about the GI50 [36] of the same molecule?
Answer: 0.134 µM

Question: What about the TGI [36] of the same molecule?
Answer: 0.349 µM

Question: And the GI50 [37]?
Answer: 2.3 µM

Question: And the TGI [37]?
Answer: 8.32 µM

Question: What about the GI50 [38] of the same molecule?
Answer: 3.3 µM

Question: What about the TGI [38] of the same molecule?
Answer: 12.7 µM

Question: What about the GI50 [39] of the same molecule?
Answer: 6.22 µM

Question: What about the TGI [39] of the same molecule?
Answer: 18.5 µM

Question: What about the GI50 [40] of the same molecule?
Answer: 0.0856 µM

Question: And the TGI [40]?
Answer: 0.236 µM

Question: And the GI50 [41]?
Answer: 5.21 µM

Question: And the TGI [41]?
Answer: 17.3 µM

Question: And the GI50 [42]?
Answer: 3.96 µM

Question: And the TGI [42]?
Answer: 13.6 µM

Question: What about the GI50 [43] of the same molecule?
Answer: 3.4 µM

Question: And the TGI [43]?
Answer: 13.4 µM

Question: What about the GI50 [44] of the same molecule?
Answer: 2.13 µM

Question: What about the TGI [44] of the same molecule?
Answer: 5.14 µM

Question: And the GI50 [45]?
Answer: 6.18 µM

Question: And the TGI [45]?
Answer: 19.2 µM

Question: And the GI50 [46]?
Answer: 0.0454 µM

Question: And the TGI [46]?
Answer: 0.189 µM

Question: What about the GI50 [47] of the same molecule?
Answer: 2.35 µM

Question: What about the TGI [47] of the same molecule?
Answer: 4.92 µM

Question: And the GI50 [48]?
Answer: 3.99 µM

Question: And the TGI [48]?
Answer: 14 µM

Question: And the GI50 [49]?
Answer: 4.09 µM

Question: What about the TGI [49] of the same molecule?
Answer: 15.9 µM

Question: And the GI50 [50]?
Answer: 4.01 µM

Question: What about the TGI [50] of the same molecule?
Answer: 15.3 µM

Question: And the GI50 [51]?
Answer: 1.96 µM

Question: And the TGI [51]?
Answer: 4.68 µM

Question: And the GI50 [52]?
Answer: 3.04 µM

Question: What about the TGI [52] of the same molecule?
Answer: 9.02 µM

Question: What about the GI50 [53] of the same molecule?
Answer: 4.49 µM

Question: What about the TGI [53] of the same molecule?
Answer: 15.5 µM

Question: What about the GI50 [54] of the same molecule?
Answer: 3.04 µM

Question: And the TGI [54]?
Answer: 11.9 µM

Question: What about the GI50 [55] of the same molecule?
Answer: 3.5 µM

Question: And the TGI [55]?
Answer: 12 µM

Question: What about the GI50 [56] of the same molecule?
Answer: 2.51 µM

Question: What about the TGI [56] of the same molecule?
Answer: 7.44 µM
